This is an account of results in US10450316B2, “Certain protein kinase inhibitor” (Chongqing Fochon Pharmaceutical Co., Ltd., priority 2015, dated 2019).

The test system of the assay is BE(2)-C cell. In words: Cell proliferation assay (MTS) in BE(2)-C cells. The format is cell-based. The following applies: Homo sapiens, inhibition of BE(2)-C cell proliferation, 48 h. The method, then:
MTS testing kit was purchased from Promega. The DMEM, Fetal bovine serum and Penicillin-Streptomycin were purchased from Gibco. Dimethyl sulfoxide (DMSO) was purchased from Sigma.
To investigate whether a compound is able to inhibit the activity of CDK4/6 in cells, mechanism-based assays using BE(2)-C cell (ATCC® number:CRL-2268) were developed. In the assay, inhibition of CDK4/6 was detected by the inhibition of BE(2)-C cell cells proliferation. BE(2)-C cell cells were cultured in culture flasks to 40-80% confluence in DMEM plus 10% fetal bovine serum. Cells were collected and plated onto 96-well plates at cell density of 3000 cells/well. Plates were incubated overnight at 37° C., with 5% CO2 to adhere. Compounds were added to the plates, the final compound concentrations were 10000, 3333, 1111, […], 123.5, 41.2, 13.7, 4.6 and 1.5 nM. Place plates at 37° C., with 5% CO2 for 48 h. After removing the medium, 20 μl MTS/100 μl medium mixture solution were added to each well and incubate the plates for exactly 2 hours. The reaction was terminated by adding 25 μl 10% SDS per well. Measure absorbance at 490 nm and 650 nm (reference wavelength). IC50 was calculated using GraphPad Prism 5.0.
Select compounds prepared as described above were assayed according to the biological procedures described herein. “++++” stands for IC50 value below about 10 nM. “+++” stands for IC50 value between greater than about 10 nM to about 100 nM. “++” stands for IC50 value between greater than about 100 nM to about […]. “+” stands for IC50 value greater than 1 μM.
In the case of `CN1CC2(C1)CN(Cc1ccc(Nc3ncc(F)c(-c4cc(F)c5nc6n(c5c4)[C@H](C(F)F)CC6)n3)nc1)C2` [Example 46, (S)-4-(1-(difluoromethyl)-5-fluoro-2,3-dihydro-1H-benzo[d]pyrrolo[1,2-a]imidazol-7-yl)-5-fluoro-N-(5-((6-methyl-2,6-diazaspiro[3.3]heptan-2-yl)methyl)pyridin-2-yl)pyrimidin-2-amine], the IC50 (commonly the point on the concentration scale where inhibition reaches its midpoint) was 10 to 100 nM.
The same measure for `CCN1CC2(C1)CN(Cc1ccc(Nc3ncc(F)c(-c4cc(F)c5nc6n(c5c4)[C@H](C(F)F)CC6)n3)nc1)C2` [Example 47, (S)-4-(1-(difluoromethyl)-5-fluoro-2,3-dihydro-1H-benzo[d]pyrrolo[1,2-a]imidazol-7-yl)-N-(5-((6-ethyl-2,6-diazaspiro[3.3]heptan-2-yl)methyl)pyridin-2-yl)-5-fluoropyrimidin-2-amine]: 10 to 100 nM.
Compound `Fc1cnc(Nc2ccc(CN3CC4CNCC4C3)cn2)nc1-c1cc(F)c2nc3n(c2c1)[C@H](C(F)F)CC3` (stereo partly drawn) [Example 48, 4-((S)-1-(difluoromethyl)-5-fluoro-2,3-dihydro-1H-benzo[d]pyrrolo[1,2-a]imidazol-7-yl)-5-fluoro-N-(5-((hexahydropyrrolo[3,4-c]pyrrol-2(1H)-yl)methyl)pyridin-2-yl)pyrimidin-2-amine] registered an IC50 of more than 100 nM.
The same measure for `CN1CC2CN(Cc3ccc(Nc4ncc(F)c(-c5cc(F)c6nc7n(c6c5)[C@H](C(F)F)CC7)n4)nc3)CC2C1` (stereo partly drawn) [Example 49, 4-((S)-1-(difluoromethyl)-5-fluoro-2,3-dihydro-1H-benzo[d]pyrrolo[1,2-a]imidazol-7-yl)-5-fluoro-N-(5-((5-methylhexahydropyrrolo[3,4-c]pyrrol-2(1H)-yl)methyl)pyridin-2-yl)pyrimidin-2-amine]: 10 to 100 nM; for `CCN1CC2CN(Cc3ccc(Nc4ncc(F)c(-c5cc(F)c6nc7n(c6c5)[C@H](C(F)F)CC7)n4)nc3)CC2C1` (stereo partly drawn) [Example 50, 4-((S)-1-(difluoromethyl)-5-fluoro-2,3-dihydro-1H-benzo[d]pyrrolo[1,2-a]imidazol-7-yl)-N-(5-((5-ethylhexahydropyrrolo[3,4-c]pyrrol-2(1H)-yl)methyl)pyridin-2-yl)-5-fluoropyrimidin-2-amine]: 10 to 100 nM; for `Fc1cnc(Nc2ccc(CN3CCC4(CCNCC4)CC3)cn2)nc1-c1cc(F)c2nc3n(c2c1)[C@H](C(F)F)CC3` [Example 51, (S)-N-(5-((3,9-diazaspiro[5.5]undecan-3-yl)methyl)pyridin-2-yl)-4-(1-(difluoromethyl)-5-fluoro-2,3-dihydro-1H-benzo[d]pyrrolo[1,2-a]imidazol-7-yl)-5-fluoropyrimidin-2-amine]: more than 100 nM.
For `CN1CCC2(CC1)CCN(Cc1ccc(Nc3ncc(F)c(-c4cc(F)c5nc6n(c5c4)[C@H](C(F)F)CC6)n3)nc1)CC2` [Example 52, (S)-4-(1-(difluoromethyl)-5-fluoro-2,3-dihydro-1H-benzo[d]pyrrolo[1,2-a]imidazol-7-yl)-5-fluoro-N-(5-((9-methyl-3,9-diazaspiro[5.5]undecan-3-yl)methyl)pyridin-2-yl)pyrimidin-2-amine], the half-maximal inhibitory concentration (IC50) is more than 100 nM.
The same measure for `CCN1CCC2(CC1)CCN(Cc1ccc(Nc3ncc(F)c(-c4cc(F)c5nc6n(c5c4)[C@H](C(F)F)CC6)n3)nc1)CC2` [Example 53, (S)-4-(1-(difluoromethyl)-5-fluoro-2,3-dihydro-1H-benzo[d]pyrrolo[1,2-a]imidazol-7-yl)-N-(5-((9-ethyl-3,9-diazaspiro[5.5]undecan-3-yl)methyl)pyridin-2-yl)-5-fluoropyrimidin-2-amine]: more than 100 nM.
`Fc1cnc(Nc2ccc(CN3C4CCC3CNC4)cn2)nc1-c1cc(F)c2nc3n(c2c1)[C@H](C(F)F)CC3` [Example 54, N-(5-((3,8-diazabicyclo[3.2.1]octan-8-yl)methyl)pyridin-2-yl)-4-((S)-1-(difluoromethyl)-5-fluoro-2,3-dihydro-1H-benzo[d]pyrrolo[1,2-a]imidazol-7-yl)-5-fluoropyrimidin-2-amine] yielded a 50% inhibitory concentration (IC50) of more than 100 nM.
Turning to `CN1CC2CCC(C1)N2Cc1ccc(Nc2ncc(F)c(-c3cc(F)c4nc5n(c4c3)[C@H](C(F)F)CC5)n2)nc1` [Example 55, 4-((S)-1-(difluoromethyl)-5-fluoro-2,3-dihydro-1H-benzo[d]pyrrolo[1,2-a]imidazol-7-yl)-5-fluoro-N-(5-((3-methyl-3,8-diazabicyclo[3.2.1]octan-8-yl)methyl)pyridin-2-yl)pyrimidin-2-amine], the IC50 lay within 10 to 100 nM.
With `CCN1CC2CCC(C1)N2Cc1ccc(Nc2ncc(F)c(-c3cc(F)c4nc5n(c4c3)[C@H](C(F)F)CC5)n2)nc1` [Example 56, 4-((S)-1-(difluoromethyl)-5-fluoro-2,3-dihydro-1H-benzo[d]pyrrolo[1,2-a]imidazol-7-yl)-N-(5-((3-ethyl-3,8-diazabicyclo[3.2.1]octan-8-yl)methyl)pyridin-2-yl)-5-fluoropyrimidin-2-amine], the half-inhibitory concentration (IC50) was in the range of 10 to 100 nM.
Consider `Fc1cnc(Nc2ccc(CN3CC4CCC(C3)N4)cn2)nc1-c1cc(F)c2nc3n(c2c1)[C@H](C(F)F)CC3` [Example 57, N-(5-((3,8-diazabicyclo[3.2.1]octan-3-yl)methyl)pyridin-2-yl)-4-((S)-1-(difluoromethyl)-5-fluoro-2,3-dihydro-1H-benzo[d]pyrrolo[1,2-a]imidazol-7-yl)-5-fluoropyrimidin-2-amine], for which the IC50 is more than 100 nM.
For the compound `CN1C2CCC1CN(Cc1ccc(Nc3ncc(F)c(-c4cc(F)c5nc6n(c5c4)[C@H](C(F)F)CC6)n3)nc1)C2` [Example 58, 4-((S)-1-(difluoromethyl)-5-fluoro-2,3-dihydro-1H-benzo[d]pyrrolo[1,2-a]imidazol-7-yl)-5-fluoro-N-(5-((8-methyl-3,8-diazabicyclo[3.2.1]octan-3-yl)methyl)pyridin-2-yl)pyrimidin-2-amine], the concentration for half-maximal inhibition (IC50) fell in the range of 10 to 100 nM.
Consider `CCN1C2CCC1CN(Cc1ccc(Nc3ncc(F)c(-c4cc(F)c5nc6n(c5c4)[C@H](C(F)F)CC6)n3)nc1)C2` [Example 59, 4-((S)-1-(difluoromethyl)-5-fluoro-2,3-dihydro-1H-benzo[d]pyrrolo[1,2-a]imidazol-7-yl)-N-(5-((8-ethyl-3,8-diazabicyclo[3.2.1]octan-3-yl)methyl)pyridin-2-yl)-5-fluoropyrimidin-2-amine], for which the IC50 was 10 to 100 nM.
Under `Fc1cnc(Nc2ccc(CN3CCN4CCC[C@@H]4C3)cn2)nc1-c1cc(F)c2nc3n(c2c1)[C@H](C(F)(F)F)CC3` [Example 60, 5-fluoro-4-((S)-5-fluoro-1-(trifluoromethyl)-2,3-dihydro-1H-benzo[d]pyrrolo[1,2-a]imidazol-7-yl)-N-(5-(((R)-hexahydropyrrolo[1,2-a]pyrazin-2(1H)-yl)methyl)pyridin-2-yl)pyrimidin-2-amine] stands 10 to 100 nM; under `Fc1cnc(Nc2ccc(CN3CC4(CCNCC4)C3)cn2)nc1-c1cc(F)c2nc3n(c2c1)[C@H](C(F)(F)F)CC3` [Example 61, (S)-N-(5-((2,7-diazaspiro[3.5]nonan-2-yl)methyl)pyridin-2-yl)-5-fluoro-4-(5-fluoro-1-(trifluoro-methyl)-2,3-dihydro-1H-benzo[d]pyrrolo[1,2-a]imidazol-7-yl)pyrimidin-2-amine], more than 100 nM.
For the compound `CN1CCC2(CC1)CN(Cc1ccc(Nc3ncc(F)c(-c4cc(F)c5nc6n(c5c4)[C@H](C(F)(F)F)CC6)n3)nc1)C2` [Example 62, (S)-5-fluoro-4-(5-fluoro-1-(trifluoromethyl)-2,3-dihydro-1H-benzo[d]pyrrolo[1,2-a]imidazol-7-yl)-N-(5-((7-methyl-2,7-diazaspiro[3.5]nonan-2-yl)methyl)pyridin-2-yl)pyrimidin-2-amine], the IC50 lay in the range of 10 to 100 nM.
Regarding `CCN1CCC2(CC1)CN(Cc1ccc(Nc3ncc(F)c(-c4cc(F)c5nc6n(c5c4)[C@H](C(F)(F)F)CC6)n3)nc1)C2` [Example 63, (S)-N-(5-((7-ethyl-2,7-diazaspiro[3.5]nonan-2-yl)methyl)pyridin-2-yl)-5-fluoro-4-(5-fluoro-1-(trifluoromethyl)-2,3-dihydro-1H-benzo[d]pyrrolo[1,2-a]imidazol-7-yl)pyrimidin-2-amine], the IC50 fell in the range of 10 to 100 nM.
Take `Fc1cnc(Nc2ccc(CN3CCC4(CC3)CNC4)cn2)nc1-c1cc(F)c2nc3n(c2c1)[C@H](C(F)(F)F)CC3` [Example 64, (S)-N-(5-((2,7-diazaspiro[3.5]nonan-7-yl)methyl)pyridin-2-yl)-5-fluoro-4-(5-fluoro-1-(trifluoro-methyl)-2,3-dihydro-1H-benzo[d]pyrrolo[1,2-a]imidazol-7-yl)pyrimidin-2-amine]: the concentration for half-maximal inhibition (IC50) is more than 100 nM.
Under `CN1CC2(CCN(Cc3ccc(Nc4ncc(F)c(-c5cc(F)c6nc7n(c6c5)[C@H](C(F)(F)F)CC7)n4)nc3)CC2)C1` [Example 65, (S)-5-fluoro-4-(5-fluoro-1-(trifluoromethyl)-2,3-dihydro-1H-benzo[d]pyrrolo[1,2-a]imidazol-7-yl)-N-(5-((2-methyl-2,7-diazaspiro[3.5]nonan-7-yl)methyl)pyridin-2-yl)pyrimidin-2-amine] stands 10 to 100 nM.
In the case of `CCN1CC2(CCN(Cc3ccc(Nc4ncc(F)c(-c5cc(F)c6nc7n(c6c5)[C@H](C(F)(F)F)CC7)n4)nc3)CC2)C1` [Example 66], the IC50 lay within 10 to 100 nM.
